Data taken from patent US20250136634A1, “CAP ANALOG AND USE THEREOF” (SHANGHAI HONGENE BIOTECH CORPORATION, priority 2021, published 2025).

Tests used:
T7 RNA polymerase = T7 RNA polymerase (Escherichia phage T7, UniProt P00573); test: Capping efficiency of mRNA from T7 in vitro transcription, RNaseH cleavage and LC-MS (Example 2); format: biochemical; conditions: Example 2, T7 RNA polymerase IVT at 37° C. for 2 hs
Excerpt: (5) Treatment with Antarctic Phosphatase:

RIG-I = molecular target: T1, RIG-I (Homo sapiens, UniProt O95786); test: Binding ability of mRNA to RIG-I, RNA co-immunoprecipitation and qPCR in Hela cells; conditions: 2 ug mRNA/well, cells collected after 24 hours, relative to ^m7GpppApG cap, mean±SD
T1 construct: endogenous in cells; host or cells: Hela cells (ATCC CCL-2)
T1 sequence (O95786 1-925): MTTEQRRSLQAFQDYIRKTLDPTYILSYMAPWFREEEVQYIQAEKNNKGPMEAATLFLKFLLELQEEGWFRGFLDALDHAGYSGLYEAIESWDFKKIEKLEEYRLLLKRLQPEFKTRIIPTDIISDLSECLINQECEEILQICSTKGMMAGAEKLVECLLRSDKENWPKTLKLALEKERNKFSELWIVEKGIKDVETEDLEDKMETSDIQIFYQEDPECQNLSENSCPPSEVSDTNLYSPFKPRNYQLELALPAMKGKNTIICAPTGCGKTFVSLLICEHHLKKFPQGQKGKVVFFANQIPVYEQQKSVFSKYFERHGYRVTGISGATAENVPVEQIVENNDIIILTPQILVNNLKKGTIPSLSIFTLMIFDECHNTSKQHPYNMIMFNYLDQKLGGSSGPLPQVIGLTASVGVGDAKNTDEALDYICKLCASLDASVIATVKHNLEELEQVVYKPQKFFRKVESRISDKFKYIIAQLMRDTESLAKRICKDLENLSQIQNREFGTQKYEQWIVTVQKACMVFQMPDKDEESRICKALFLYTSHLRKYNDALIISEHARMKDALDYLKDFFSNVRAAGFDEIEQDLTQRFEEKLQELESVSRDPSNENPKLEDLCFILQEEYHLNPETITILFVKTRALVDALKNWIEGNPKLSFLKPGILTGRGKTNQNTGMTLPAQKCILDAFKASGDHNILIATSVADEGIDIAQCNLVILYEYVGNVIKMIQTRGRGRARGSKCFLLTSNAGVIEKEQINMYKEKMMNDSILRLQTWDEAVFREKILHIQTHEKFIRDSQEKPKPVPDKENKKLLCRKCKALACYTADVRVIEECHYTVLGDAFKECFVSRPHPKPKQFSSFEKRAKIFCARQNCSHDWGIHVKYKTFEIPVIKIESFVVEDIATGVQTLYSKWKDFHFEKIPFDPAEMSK
Description: In this example, Hela cells (ATCC CCL-2) were transfected with luciferase mRNAs (Gaussia luciferase) comprising various initial cap structures (the initial cap nucleotide structures comprised are: ^m7GpppApG, ^m7GpppA2′Ome pG, ^m7G3′OmepppA2′O-ethylpG, ^m7G2′OmepppA2′O-ethylpG, ^m7G3′Omeppp A2′O-MOEpG, ^m7G2′O-mepppA2′O-MOEpG, ^m7Gppp(N6-methyladenine)2′O-MOEpG, ^m7G2′OmepppC2′O-ethylpC, ^m7G3′OmepppA2′O-MOEpU), and collected after 24 hours. The intracellular proteins RIG-I and IFIT1 were co-precipitated with the RNAs to which they bound by RNA co-immunoprecipation. The mRNAs were subjected to reverse transcription and real-time quantitative PCR, and the relative abundance of the mRNAs is proportional to their RIG-I and IFIT1 binding ability.
(§1) Hela cells were seeded at a cell density of 4×10^5/well in 6-well plates, and transfected with mRNA at 2 ug mRNA/well when the cell density reached about 80% using Lipofectamine MessengerMAX Transfection Reagent (Invitrogen) according to the transfection steps in the instruction. The cells were collected after 24 hours, and incubated at RT for 10 minutes after the addition of fixative solution. The reaction was then terminated by adding glycine at a suitable concentration, and the cells were collected by centrifugation. Appropriate amount of lysis solution was added to the cells. The mixture was incubated on ice for 30 minutes and centrifuged to collect supernatant. Appropriate amount of (2-4 ng) anti-RIG-I and IFIT1 antibodies (Abcam) were added to the supernatant, and the mixture was incubated overnight at 4° C. on a shaker, and then 20 ul Protein A/G magnetic beads were added and incubated for 2 hours at 4° C. on a shaker. The beads were rinsed using magnetic grate for 5 minutes and repeated 3 times. After that, 1 mL TRIzol reagent was added to the magnetic beads to extract RNAs which were then reverse transcribed into cDNAs. The expression of related genes was detected using real-time quantitative fluorescent PCR with B-actin as the internal reference. The detection of each gene was repeated 3 times, and the result of the expression of each gene is expressed as the relative value to the result of ^m7GpppApG cap.
The intracellular proteins RIG-I and IFIT1 were co-precipitated with the RNAs to which they bound by RNA co-immunoprecipitation. The mRNAs were subjected to reverse transcription and real-time quantitative PCR, and the relative abundance of the mRNAs is proportional to their RIG-I and IFIT1 binding ability.
as §1, with “(Invitrogen) as the transfection reagent” for “(Invitrogen)”, “was” for “was then”

T7 RNA polymerase, sequence (P00573 whole entry): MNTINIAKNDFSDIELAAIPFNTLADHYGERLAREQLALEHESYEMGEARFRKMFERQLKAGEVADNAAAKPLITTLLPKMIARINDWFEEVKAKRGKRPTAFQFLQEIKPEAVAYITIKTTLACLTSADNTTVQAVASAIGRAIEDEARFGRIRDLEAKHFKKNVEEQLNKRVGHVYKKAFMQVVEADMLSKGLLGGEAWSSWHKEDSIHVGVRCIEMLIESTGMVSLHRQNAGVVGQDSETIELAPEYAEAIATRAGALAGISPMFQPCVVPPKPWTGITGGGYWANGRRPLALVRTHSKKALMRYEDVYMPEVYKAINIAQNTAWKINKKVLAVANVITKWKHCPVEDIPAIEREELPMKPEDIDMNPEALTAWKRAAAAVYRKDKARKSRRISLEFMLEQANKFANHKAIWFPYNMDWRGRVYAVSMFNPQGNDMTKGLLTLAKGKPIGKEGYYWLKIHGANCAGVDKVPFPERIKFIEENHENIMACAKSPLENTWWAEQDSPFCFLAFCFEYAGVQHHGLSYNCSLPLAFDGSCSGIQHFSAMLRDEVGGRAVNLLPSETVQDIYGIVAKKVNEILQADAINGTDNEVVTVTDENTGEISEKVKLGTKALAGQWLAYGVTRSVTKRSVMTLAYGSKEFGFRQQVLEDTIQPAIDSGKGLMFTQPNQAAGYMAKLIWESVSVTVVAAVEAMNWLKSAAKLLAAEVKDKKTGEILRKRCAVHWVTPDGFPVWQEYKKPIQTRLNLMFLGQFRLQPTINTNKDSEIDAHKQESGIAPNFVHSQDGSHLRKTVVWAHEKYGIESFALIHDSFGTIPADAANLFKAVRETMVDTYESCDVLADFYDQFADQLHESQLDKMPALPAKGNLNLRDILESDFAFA

| Substance | Capping efficiency (T7 RNA polymerase) [%] | Relative binding ability to RIG (RIG-I; Example 2) | Relative binding ability to RIG (RIG-I; Example 3 (IVT at 50° C.)) |
| --- | --- | --- | --- |
| ^m7G2′OmepppA2′O-MOEpG | 88 | 0.69 ± 0.01 |  |
| ^m7G2′OmepppA2′O-ethylpG | 92 | 0.82 ± 0.03 |  |
| ^m7G2′OmepppC2′O-ethylpC | 92 | 0.93 ± 0.08 |  |
| ^m7G3′OmepppA2′O-MOEpG | 89 | 0.78 ± 0.07 |  |
| ^m7G3′OmepppA2′O-MOEpU | 93 | 1.12 ± 0.01 |  |
| ^m7G3′OmepppA2′O-ethylpG | 94 | 0.87 ± 0.11 |  |
| ^m7GAlpha-L-LNApppA2′O-ethyl pG |  |  | 0.52 ± 0.01 |
| ^m7GBeta-D-LNApppA2′O-MOEpG |  |  | 0.48 ± 0.02 |
| ^m7Gppp(N6-methyladenine)2′O-MOEpG | 84 | 0.77 ± 0.14 |  |
| ^m7GpppA2′Ome pG [reference compound] | 97 | 0.86 ± 0.06 | 0.88 ± 0.11 |
| ^m7GpppApG [reference compound] | 98 | 1 ± 0.23 | 1 ± 0.28 |
